Assay results: patent publication US10766888B1, “HMOX1 inducers” (Mitobridge Inc., priority 2019, dated 2020)
Converted amounts (≈) assume the structure as drawn. Counter-ions that a name gives are not always drawn.

How the values were obtained:
[1] = system: Human Heme Oxygenase-1 (HMOX-1); experiment: ELISA assay to measure human heme oxygenase-1 (HMOX-1) in HepG2 lysate; type: cell-based; settings: human HMOX1 protein level in HepG2 lysate; * = average of 2 or more EC50 determinations; NA = Not Active; read-out: EC50
Procedure: Example 143. ELISA Assay to Measure Human Heme Oxygenase-1 (HMOX-1) in HepG2 lysate
Reagents and Technical Notes:
ELISA capture antibody, standard HO-1, detection antibody and streptavidin HRP were supplied in the DuoSet IC Human total HO-1 ELISA from R&D systems (DYC3776-2). The substrate cocktail was KPL LumiGLO reserve Chemiluminescent Substrate (54-71-00). PBS was Corning Cellgro Cell Culture (21-040-CV). 10×PBS+0.05% tween20 (PBST) was from KPL.
All incubations of the plate were at room temperature (20° C.) in a closed drawer.
The ELISA plate was processed manually. All loadings were with a multichannel pipet. Plates were emptied by shaking into the sink and tapping onto paper towels to remove any remaining reagent. Plate washing was accomplished by loading all wells with PBS+0.05% tween20 (PBST) using a squirt bottle, shaking the PBST out and tapping the plate onto paper towels.
Preparation of the ELISA Plate:
• 1. anti-HO-1 capture antibody was 1440 μg/ml after reconstitution in PBS. This antibody was diluted to 8 μg/ml in PBS and 50 μl per well was added to a 384 well greiner “lumitrac 200” plate. Incubated overnight. • 2. The plate was emptied and 100 μl PBS+1% BSA added to all wells. Incubated 90 minutes at room temperature. Preparation of HepG2 Lysate: • 1. Cells were cultured in a 96-well tissue culture plate washed with PBS and then the plate frozen at −70° C. overnight. Plates were allowed to warm to ice temperature in an ice bucket. 20 μl of PBS, 0.5% Triton X100, 1 mM EDTA with 1×HALT™ protease inhibitors was added to each well and the plates incubated on ice for 1 hour. • 2. The lysates were frozen at −20° C. overnight. Measurement of HMOX1 (“HO-1”) • 1. In a polypropylene 384 well plate, human HO-1 (after reconstitution in PBS+0.5% Triton+1 mM EDTA) was serially diluted from 20 ng/ml 2-fold in PBS+0.5% triton-X100, 1 mM EDTA to make a 12-point standard curve including a zero point. • 2. In a polypropylene 96 well plate, HepG2 lysate was diluted 1 to 20 in Diluent #4 from DUOSET kit in which the assay standard is also diluted. • 3. The PBS+1% BSA was emptied from the ELISA plate and 30 μl of all samples and standards were added (duplicates recommended). The plate was incubated 90 minutes. • 4. Emptied plate and washed 4 times with PBST. • 5. Diluted HO-1 detection antibody to 200 ng/ml in PBS+1% BSA and added 30 μl to all wells. Incubated 90 minutes. • 6. Emptied plate and washed 4 times with PBST. • 7. Added 30 μl streptavidin HRP at 1/200 in PBS+1% BSA (stock streptavidin concentration not specified) to all wells. Incubated 30 minutes. • 8. Emptied plate and washed 4 times with PBST. • 9. Diluted Lumiglo reserve reagent two parts buffer to one part lumiglo substrate. Added 30 μl to all wells. Incubated 5 minutes. • 10. Measured chemiluminescence on spectramax M5 using 150 ms integration.
Table 1 below lists EC50 and fold changes of human HMOX1 protein levels relative to DMSO control upon treatment with representative compounds.

[2] = Kinetic solubility; type: physicochemical; settings: Dulbecco's phosphate buffer saline (DPBS), aqueous buffer, kinetic from dmso stock, DPBS pH 7.4, 25° C., 200 μM test compound
Procedure: Example 144. Kinetic Solubility
10 μL of 10 mM DMSO stock solution were aliquotted to 490 μL of DMSO solution and separately 490 μL of Dulbecco's phosphate buffer saline, DPBS, pH 7.4 solution in 1.2 mL 96-well plates in duplicate. Final concentration was 200 μM of the test compound. Samples were incubated at 25° C. with shaking at 200 rpm for 16 h. Samples were centrifuged at 3500 rpm for 20 min at 25° C., and supernatant was submitted for HPLC analysis.
Kinetic solubility was measured using the following equation: […]

Structure (SMILES)	EC50 [1]	solubility at 16 h [2]
CC(C)C(N)C(=O)OCCOCCNC(=O)c1ccc2c(c1)nc(Nc1nc3ccccc3o1)n2C.Cl (racemic) [Example 30, 2-(2-(2-(benzo[d]oxazol-2-ylamino)-1-methyl-1H-benzo[d]imidazole-5-carboxamido)ethoxy)ethyl DL-valinate hydrochloride]	3.5 µM	3.2 µM
CC(=O)N1CCc2nc(Nc3nc4cc(C(=O)NCCOCCO)ccc4n3C)sc2C1 [Example 10, 2-((5-acetyl-4,5,6,7-tetrahydrothiazolo[5,4-c]pyridin-2-yl)amino)-N-(2-(2-hydroxyethoxy)ethyl)-1-methyl-1H-benzo[d]imidazole-5-carboxamide]	–	8.6 µM (≈ 3.94 µg/mL)
Cn1c(Nc2nc3ccccc3o2)nc2cc(C(=O)NCC(O)CO)ccc21 (stereo not drawn) [Example 24, 2-(benzo[d]oxazol-2-ylamino)-N-(2,3-dihydroxypropyl)-1-methyl-1H-benzo[d]imidazole-5-carboxamide]	–	12.4 µM (≈ 4.73 µg/mL)
Cn1c(Nc2nc3ccccc3o2)nc2cc(C(=O)NCCOCC(C)(C)O)ccc21 [Example 27, 2-(benzo[d]oxazol-2-ylamino)-N-(2-(2-hydroxy-2-methylpropoxy)ethyl)-1-methyl-1H-benzo[d]imidazole-5-carboxamide]	–	10.6 µM (≈ 4.49 µg/mL)
Cn1c(Nc2nc3ccccc3o2)nc2cc(C(=O)NCCOCC(=O)O)ccc21 [Example 29, 2-(2-(2-(benzo[d]oxazol-2-ylamino)-1-methyl-1H-benzo[d]imidazole-5-carboxamido)ethoxy)acetic acid]	–	19.3 µM (≈ 7.9 µg/mL)
Cn1c(Nc2nc3ccc(C(F)(F)F)cc3o2)nc2cc(C(=O)NCCN3CCCCC3)ccc21 [Example 37, 1-methyl-N-(2-(piperidin-1-yl)ethyl)-2-((6-(trifluoromethyl)benzo[d]oxazol-2-yl)amino)-1H-benzo[d]imidazole-5-carboxamide]	–	< 2 µM
Cn1c(Nc2nc3ccc(Cl)cc3o2)nc2cc(C(=O)O)ccc21 [Example 96, 2-((6-chlorobenzo[d]oxazol-2-yl)amino)-1-methyl-1H-benzo[d]imidazole-5-carboxylic acid]	2.8 µM	–
Cn1c(Nc2nc3cc(F)c(C(F)(F)F)cc3o2)nc2cc(C(=O)O)ccc21 [Example 107, 2-((5-fluoro-6-(trifluoromethyl)benzo[d]oxazol-2-yl)amino)-1-methyl-1H-benzo[d]imidazole-5-carboxylic acid]	4.5 µM	–
Cn1c(Nc2nc3nccnc3s2)nc2cc(C(=O)NCCOCCO)ccc21 [Example 114, N-(2-(2-hydroxyethoxy)ethyl)-1-methyl-2-(thiazolo[4,5-b]pyrazin-2-ylamino)-1H-benzo[d]imidazole-5-carboxamide]	–	12.2 µM (≈ 5.04 µg/mL)
Cn1c(Nc2nc3ccc(C4CC4)cc3o2)nc2cc(C(=O)O)ccc21 [Example 115, 2-((6-cyclopropylbenzo[d]oxazol-2-yl)amino)-1-methyl-1H-benzo[d]imidazole-5-carboxylic acid]	6.2 µM	–
COCCNC(=O)c1ccc2c(c1)nc(Nc1nc3ccc(C4CC4)cc3o1)n2C [Example 116, 2-((6-cyclopropylbenzo[d]oxazol-2-yl)amino)-N-(2-methoxyethyl)-1-methyl-1H-benzo[d]imidazole-5-carboxamide]	3 µM	–
Cn1c(Nc2nc3cc(C(=O)NCCOCCO)ccc3o2)nc2ccccc21 [Example 118, N-(2-(2-hydroxyethoxy)ethyl)-2-((1-methyl-1H-benzo[d]imidazol-2-yl)amino)benzo[d]oxazole-5-carboxamide]	8 µM	–
Cn1c(Nc2nc3ccccc3o2)nc2cc(C(O)C(F)(F)F)ccc21 (stereo not drawn) [Example 142, 1-(2-(benzo[d]oxazol-2-ylamino)-1-methyl-1H-benzo[d]imidazol-5-yl)-2,2,2-trifluoroethan-1-ol]	3.3 µM	–

Second part, the compound after the results:

EC50 [1]	solubility at 16 h [2]	Structure (SMILES)
0.5 µM	1.4 µM (≈ 0.607 µg/mL)	COCCNC(=O)c1ccc2c(c1)nc(Nc1nc3ccc(C(F)(F)F)cc3o1)n2C [Example 32, N-(2-methoxyethyl)-1-methyl-2-((6-(trifluoromethyl)benzo[d]oxazol-2-yl)amino)-1H-benzo[d]imidazole-5-carboxamide]
1.2 µM	< 2 µM	CC(O)CNC(=O)c1ccc2c(c1)nc(Nc1nc3ccc(C(F)(F)F)cc3o1)n2C (stereo not drawn) [Example 35, N-(2-hydroxypropyl)-1-methyl-2-((6-(trifluoromethyl)benzo[d]oxazol-2-yl)amino)-1H-benzo[d]imidazole-5-carboxamide]
–	4 µM (≈ 1.89 µg/mL)	Cn1cc(NC(=O)c2ccc3c(c2)nc(Nc2nc4ccc(OC(F)(F)F)cc4o2)n3C)cn1 [Example 50, 1-methyl-N-(1-methyl-1H-pyrazol-4-yl)-2-((6-(trifluoromethoxy)benzo[d]oxazol-2-yl)amino)-1H-benzo[d]imidazole-5-carboxamide]
6.8 µM	–	O=C(O)c1ccc2c(c1)nc(Nc1nc3ccc(OC(F)(F)F)cc3o1)n2CC1CCOC1 (stereo not drawn) [Example 87, 1-((tetrahydrofuran-3-yl)methyl)-2-((6-(trifluoromethoxy)-benzo[d]oxazol-2-yl)amino)-1H-benzo[d]imidazole-5-carboxylic acid]
1.5 µM	–	COCCNC(=O)c1ccc2c(c1)nc(Nc1nc3ccc(OC(F)(F)F)cc3o1)n2CC1CCOC1 (stereo not drawn) [Example 88, N-(2-methoxyethyl)-1-((tetrahydrofuran-3-yl)methyl)-2-((6-(trifluoromethoxy)benzo[d]oxazol-2-yl)amino)-1H-benzo[d]imidazole-5-carboxamide]
4.8 µM	–	COCCNC(=O)c1ccc2c(c1)nc(Nc1nc3ccc(OC(F)(F)F)cc3o1)n2CCS(C)(=O)=O [Example 90, N-(2-methoxyethyl)-1-(2-(methylsulfonyl)ethyl)-2-((6-(trifluoromethoxy)benzo[d]oxazol-2-yl)amino)-1H-benzo[d]imidazole-5-carboxamide]
1.6 µM	–	O=C(NCCO)c1ccc2c(c1)nc(Nc1nc3ccc(OC(F)(F)F)cc3o1)n2CC1(O)COC1 [Example 95, N-(2-hydroxyethyl)-1-((3-hydroxyoxetan-3-yl)methyl)-2-((6-(trifluoromethoxy)benzo[d]oxazol-2-yl)amino)-1H-benzo[d]imidazole-5-carboxamide]
4.1 µM	–	Cn1c(Nc2nc3ccc(OCC(F)(F)F)cc3o2)nc2cc(C(=O)O)ccc21 [Example 98, 1-methyl-2-((6-(2,2,2-trifluoroethoxy)benzo[d]oxazol-2-yl)amino)-1H-benzo[d]imidazole-5-carboxylic acid]
4.1 µM	–	Cn1c(Nc2nc3ccc(OCCO)cc3o2)nc2cc(C(=O)NCCN)ccc21 [Example 105, N-(2-aminoethyl)-2-((6-(2-hydroxyethoxy)benzo[d]oxazol-2-yl)amino)-1-methyl-1H-benzo[d]imidazole-5-carboxamide hydrochloride]
–	9.1 µM (≈ 3.83 µg/mL)	Cn1c(Nc2nc3ccc(C(F)(F)F)nc3o2)nc2cc(C(=O)NCCO)ccc21 [Example 113, N-(2-hydroxyethyl)-1-methyl-2-((5-(trifluoromethyl)oxazolo[5,4-b]pyridin-2-yl)amino)-1H-benzo[d]imidazole-5-carboxamide]
2 µM	–	Cn1c(Nc2nc3ccc(OC4CCOCC4)cc3o2)nc2cc(C(=O)NCCOCCO)ccc21 [Example 138, N-(2-(2-hydroxyethoxy)ethyl)-1-methyl-2-((6-((tetrahydro-2H-pyran-4-yl)oxy)benzo[d]oxazol-2-yl)amino)-1H-benzo[d]imidazole-5-carboxamide]
